Molecular target: T1, membrane-associated ATPase activity in P. falciparum infected human erythrocytes (3D7) (Plasmodium falciparum, UniProt A0A143ZZK9)
T1 construct: saponin-isolated parasites were lysed by suspension in ice-cold water; endogenous in cells; host or cells: membrane preparation of saponin-isolated mature trophozoite-stage P. falciparum 3D7 parasites
Experiment: Membrane-associated ATPase activity (Pi production), infected erythrocyte membranes
Type: biochemical
Details: 50 nM
Description: For the preparation of uninfected erythrocyte membranes, packed uninfected erythrocytes were lysed by incubation for 5 min in ice-cold PBS containing 0.1% (w/v) saponin together with 1/500 Protease Inhibitor Cocktail Set III (Calbiochem). The erythrocyte ghosts were pelleted by centrifugation (12,000 × g, 10 min) and washed three times in ice-cold water (12,000 × g, 10 min) immediately prior to their use in the ATPase assay. To prepare membranes from parasitised erythrocytes, saponin-isolated parasites were lysed by suspension in ice-cold water (containing 1/500 Protease Inhibitor Cocktail Set III) then washed three times in ice-cold water (12,000 × g, 10 min) before their immediate use in the ATPase assay. The ATPase activity of membrane preparations from uninfected erythrocytes and saponin-isolated parasites was estimated from the rate of hydrolysis of ATP and measured using the PiColorLock Gold Phosphate (Pi) Detection System (Innova Biosciences). Briefly, membrane preparations from 1–3 × 10^8 cells were suspended in reaction buffer (100 mM of either NaCl or choline chloride, 50 mM Tris-HCl, 20 mM KCl, and 2 mM MgCl2) at 37°C. The ATPase reaction was initiated by the addition of 0.25 mM Na2ATP. Note that it was necessary to use the Na^+ salt of ATP, rather than the K^+ and Mg^2+ salts, as the latter both contain residual Pi that saturated the Pi detection system. […]

T1 sequence (A0A143ZZK9 whole entry): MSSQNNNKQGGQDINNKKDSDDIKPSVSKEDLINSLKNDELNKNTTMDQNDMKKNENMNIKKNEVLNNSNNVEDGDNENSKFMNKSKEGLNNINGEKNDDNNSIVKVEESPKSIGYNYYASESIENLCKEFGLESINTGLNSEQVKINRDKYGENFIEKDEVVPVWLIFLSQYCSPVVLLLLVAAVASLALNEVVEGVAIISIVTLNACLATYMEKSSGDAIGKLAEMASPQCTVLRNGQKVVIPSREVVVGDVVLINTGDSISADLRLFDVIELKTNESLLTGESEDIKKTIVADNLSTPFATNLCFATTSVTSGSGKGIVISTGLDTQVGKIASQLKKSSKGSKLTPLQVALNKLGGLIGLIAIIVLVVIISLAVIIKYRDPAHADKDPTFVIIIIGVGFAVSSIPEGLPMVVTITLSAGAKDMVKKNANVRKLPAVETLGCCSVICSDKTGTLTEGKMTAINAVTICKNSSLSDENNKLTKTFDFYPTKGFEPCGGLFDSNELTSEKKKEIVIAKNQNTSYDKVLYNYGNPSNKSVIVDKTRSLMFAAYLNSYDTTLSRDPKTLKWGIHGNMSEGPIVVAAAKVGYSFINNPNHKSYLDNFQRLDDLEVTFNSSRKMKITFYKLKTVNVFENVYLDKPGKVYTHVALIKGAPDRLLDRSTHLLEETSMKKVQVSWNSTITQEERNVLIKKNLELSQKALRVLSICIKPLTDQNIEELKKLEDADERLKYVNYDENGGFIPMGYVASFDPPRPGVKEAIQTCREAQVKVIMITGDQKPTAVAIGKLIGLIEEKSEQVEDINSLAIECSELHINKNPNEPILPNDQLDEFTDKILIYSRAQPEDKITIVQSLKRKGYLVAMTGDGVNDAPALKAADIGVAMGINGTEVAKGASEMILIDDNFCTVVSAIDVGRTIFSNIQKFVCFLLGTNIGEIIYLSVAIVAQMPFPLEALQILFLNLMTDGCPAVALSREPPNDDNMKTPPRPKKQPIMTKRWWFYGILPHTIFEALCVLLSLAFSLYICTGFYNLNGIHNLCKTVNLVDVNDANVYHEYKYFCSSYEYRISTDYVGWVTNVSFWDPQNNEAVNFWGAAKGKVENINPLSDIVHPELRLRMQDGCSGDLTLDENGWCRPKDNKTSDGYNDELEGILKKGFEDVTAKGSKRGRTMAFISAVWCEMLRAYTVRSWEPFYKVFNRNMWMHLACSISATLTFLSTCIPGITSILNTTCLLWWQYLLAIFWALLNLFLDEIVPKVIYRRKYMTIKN

In the case of `C[C@H]1Cc2c([nH]c3cc(F)c(F)cc23)[C@@]2(N1)C(=O)Nc1ccc(Cl)cc12` [NITD246], the remaining activity at 0.05 µM (100 mM Na^+, n = 5, p = 0.020, read-out: ATPase activity, % of the control value) is reported as 60% and the “Effect on ATPase activity” value (low (0.5 mM) [Na^+] medium, p = 0.63) is reported as “no significant change”.

Reference: paper PMC3574224, “Na^+ Regulation in the Malaria Parasite Plasmodiumfalciparum Involves the Cation ATPase PfATP4 and Is a Target of the Spiroindolone Antimalarials” (Cell Host & Microbe, 2013)
